Structures can show the parent of a compound that is named as a salt.
Key:
[1] = tested on: Vero E6; experiment: inhibition of SARS-CoV-2-induced cytopathic effect relative to cell and virus controls; higher = more antiviral protection; conditions: 72 h, virus: SARS-CoV-2 propagated original strain, 100 TCID50, assay detail: infected
Procedure: (§1)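 Vero E6 C1008 cells (2e4 cells/well) were treated with a 3-fold dilution series of each drug (monotherapy), with or without live SARS-CoV-2 (propagated original strain, 100 TCID50). After 72 h at 37 °C, viability was read with Viral ToxGlo (ATP luminescence). %Inhibition of virus-induced CPE and %Cytotoxicity (uninfected) were normalised to cell and virus controls. Triplicates. The paper excluded %Inhibition points with >25% cytotoxicity from its curve fits.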

[2] = tested on: Vero E6; experiment: cytotoxicity relative to untreated cell control; higher = more toxic; conditions: 72 h, assay detail: uninfected
Procedure: as §1

O=c1nc(NO)ccn1[C@@H]1O[C@H](CO)[C@@H](O)[C@H]1O [EIDD-1931]
Conditions | cytotoxicity, [2] [%] | inhibition of SARS-CoV-2-induced cytopathic effect, [1] [%]
56.45 pM | -9.83 | -1.26
0.000169351 µM | -16.6 | 0.00675
0.000508053 µM | -20 | 0.0533
0.00152416 µM | -19.1 | 0.601
0.00457247 µM | -16.2 | -0.506
0.0137174 µM | -14.9 | -0.261
0.0411523 µM | -10.5 | -0.787
0.123457 µM | -12.1 | 3.32
0.37037 µM | -7.1 | 13.2
1.11111 µM | -15.6 | 57.5
3.33333 µM | 7.25 | 78.3
10 µM | 25.9 | 70.6

CCc1c2c(nc3ccc(O)cc13)-c1cc3c(c(=O)n1C2)COC(=O)[C@]3(O)CC [SN-38]
Conditions | cytotoxicity, [2] [%] | inhibition of SARS-CoV-2-induced cytopathic effect, [1] [%]
56.45 pM | -12.2 | -1.53
0.000169351 µM | -12.8 | -0.815
0.000508053 µM | -9.63 | -0.975
0.00152416 µM | -8.98 | -2.92
0.00457247 µM | -9.11 | -3.61
0.0137174 µM | -9.99 | -6.1
0.0411523 µM | 5.49 | -10.4
0.123457 µM | 1.29 | -10.9
0.37037 µM | 1.32 | -11.1
1.11111 µM | 6.01 | -10.4
3.33333 µM | 43.6 | -14.8
10 µM | 82.6 | -17.4

CCS(=O)(=O)N1CC(CC#N)(n2cc(-c3ncnc4[nH]ccc34)cn2)C1 [baricitinib]
Conditions | cytotoxicity, [2] [%] | inhibition of SARS-CoV-2-induced cytopathic effect, [1] [%]
56.45 pM | -23.8 | 0.443
0.000169351 µM | -24.9 | -0.597
0.000508053 µM | -20.2 | 1.73
0.00152416 µM | -17.5 | 0.473
0.00457247 µM | -20.6 | 0.0832
0.0137174 µM | -15.3 | -0.169
0.0411523 µM | -17.8 | -0.529
0.123457 µM | -13.4 | -0.177
0.37037 µM | -9.61 | 0.117
1.11111 µM | -14 | -1.55
3.33333 µM | -9.73 | -2.06
10 µM | -10.3 | -1.06

O=c1c2ccccc2[se]n1-c1ccccc1 [ebselen]
Conditions | cytotoxicity, [2] [%] | inhibition of SARS-CoV-2-induced cytopathic effect, [1] [%]
56.45 pM | -9.38 | 0.954
0.000169351 µM | -15.3 | -0.438
0.000508053 µM | -9.41 | -0.0732
0.00152416 µM | -4.85 | -0.949
0.00457247 µM | -3.63 | -0.344
0.0137174 µM | -5.61 | -0.6
0.0411523 µM | -10.3 | -1.57
0.123457 µM | -6.66 | 0.817
0.37037 µM | -2.52 | 0.828
1.11111 µM | -1.45 | 1.82
3.33333 µM | 2.92 | 6.69
10 µM | 17.6 | 71.3

Cc1ccc(NC(=O)c2ccc(CN3CCN(C)CC3)cc2)cc1Nc1nccc(-c2cccnc2)n1 [imatinib mesylate]
Conditions | cytotoxicity, [2] [%] | inhibition of SARS-CoV-2-induced cytopathic effect, [1] [%]
0.000564503 µM | 4.59 | 0.0871
0.00169351 µM | -0.227 | -0.274
0.00508053 µM | -4.57 | -1.02
0.0152416 µM | -8.01 | -0.646
0.0457247 µM | -4.41 | -1.84
0.137174 µM | -4.39 | -1.94
0.411523 µM | -6.59 | -2
1.23457 µM | -4.79 | 1.61
3.7037 µM | -6.93 | 18
11.1111 µM | 9.9 | 102
33.3333 µM | 61.8 | 48.6
100 µM | 99.785 | -17.3

Cc1cccc(C)c1OCC(=O)N[C@@H](Cc1ccccc1)[C@@H](O)C[C@H](Cc1ccccc1)NC(=O)[C@H](C(C)C)N1CCCNC1=O [lopinavir]
Conditions | cytotoxicity, [2] [%] | inhibition of SARS-CoV-2-induced cytopathic effect, [1] [%]
0.00112901 µM | 8.74 | 2.06
0.00338702 µM | 6.74 | 1.04
0.0101611 µM | -8.25 | 1.48
0.0304832 µM | -3.94 | 0.483
0.0914495 µM | -7.05 | 1.04
0.274348 µM | -5.02 | 2.11
0.823045 µM | -7.06 | 1.91
2.46914 µM | -5.88 | 1.69
7.40741 µM | -25.7 | 2.75
22.2222 µM | 25.9 | 72.7
66.6667 µM | 99.066 | -14.47
200 µM | 99.504 | -14.97

Cc1ccc(NC(=O)c2ccc(CN3CCN(C)CC3)cc2)cc1Nc1nc(-c2cccnc2)cs1 [masitinib]
Conditions | cytotoxicity, [2] [%] | inhibition of SARS-CoV-2-induced cytopathic effect, [1] [%]
0.000564503 µM | -15.3 | 0.87
0.00169351 µM | -17.5 | 1.03
0.00508053 µM | -21.6 | 2.14
0.0152416 µM | -16.3 | 1.2
0.0457247 µM | -19.4 | 0.66
0.137174 µM | -17.8 | 0.458
0.411523 µM | -19.8 | 3.69
1.23457 µM | -15.2 | 8.75
3.7037 µM | 4.4 | 42.8
11.1111 µM | 83.4 | 18.1
33.3333 µM | 99.617 | -7.42
100 µM | 99.831 | -17.86

N=C(N)Nc1ccc(C(=O)Oc2ccc3cc(C(=N)N)ccc3c2)cc1 [nafamostat mesylate]
Conditions | cytotoxicity, [2] [%] | inhibition of SARS-CoV-2-induced cytopathic effect, [1] [%]
56.45 pM | -10.2 | 1.36
0.000169351 µM | -7.59 | 0.555
0.000508053 µM | -1.77 | 1.31
0.00152416 µM | -4.85 | 0.363
0.00457247 µM | -6 | 0.453
0.0137174 µM | -9.55 | 0.391
0.0411523 µM | -7.66 | -0.525
0.123457 µM | -5.32 | -0.383
0.37037 µM | 1.08 | 0.358
1.11111 µM | -2.6 | 0.841
3.33333 µM | 1.59 | 0.526
10 µM | -0.485 | -0.288

CCC(CC)COC(=O)[C@H](C)N[P@](=O)(OC[C@H]1O[C@@](C#N)(c2ccc3c(N)ncnn23)[C@H](O)[C@@H]1O)Oc1ccccc1 [remdesivir]
Conditions | cytotoxicity, [2] [%] | inhibition of SARS-CoV-2-induced cytopathic effect, [1] [%]
0.000564503 µM | -22.9 | 1.31
0.00169351 µM | -17.3 | 1.17
0.00508053 µM | -11.8 | -0.59
0.0152416 µM | -6.94 | -0.693
0.0457247 µM | -6.5 | -0.335
0.137174 µM | -4.51 | 1.45
0.411523 µM | -1.99 | 6.62
1.23457 µM | -7.93 | 42.2
3.7037 µM | -2.61 | 111
11.1111 µM | 2.25 | 108
33.3333 µM | 9.25 | 96.6
100 µM | 59.6 | 44.1

CC(C)c1nc(CN(C)C(=O)N[C@H](C(=O)N[C@@H](Cc2ccccc2)C[C@H](O)[C@H](Cc2ccccc2)NC(=O)OCc2cncs2)C(C)C)cs1 [ritonavir]
Conditions | cytotoxicity, [2] [%] | inhibition of SARS-CoV-2-induced cytopathic effect, [1] [%]
0.00112901 µM | -15.2 | 2.5
0.00338702 µM | -13.3 | 3.51
0.0101611 µM | -27.3 | 1.73
0.0304832 µM | -22.5 | 0.79
0.0914495 µM | -33.3 | 2.39
0.274348 µM | -28.6 | 0.802
0.823045 µM | -22 | 1.81
2.46914 µM | -21.4 | 1.96
7.40741 µM | -27.3 | 2.22
22.2222 µM | -38.7 | 7.59
66.6667 µM | 8.14 | 2.75
200 µM | 69.7 | -2.18

O=C(/C=C\n1cnc(-c2cc(C(F)(F)F)cc(C(F)(F)F)c2)n1)NNc1cnccn1 [selinexor]
Conditions | cytotoxicity, [2] [%] | inhibition of SARS-CoV-2-induced cytopathic effect, [1] [%]
0.000564503 µM | 14.6 | 1.79
0.00169351 µM | 14.9 | 0.365
0.00508053 µM | 7.61 | -1.85
0.0152416 µM | 7.88 | -2.96
0.0457247 µM | 29.1 | -4.3
0.137174 µM | 23.4 | -3.81
0.411523 µM | 35.6 | -3.25
1.23457 µM | 47.2 | -2.87
3.7037 µM | 48.93 | -1.23
11.1111 µM | 44.1 | 8.51
33.3333 µM | 89.1 | -1.32
100 µM | 99.74 | -15.08

CCC[C@H](NC(=O)[C@@H]1[C@H]2CCC[C@H]2CN1C(=O)[C@@H](NC(=O)[C@@H](NC(=O)c1cnccn1)C1CCCCC1)C(C)(C)C)C(=O)C(=O)NC1CC1 [telaprevir]
Conditions | cytotoxicity, [2] [%] | inhibition of SARS-CoV-2-induced cytopathic effect, [1] [%]
0.000564503 µM | 0.259 | 0.117
0.00169351 µM | -0.00145 | 1.28
0.00508053 µM | -4.54 | -0.629
0.0152416 µM | -3.42 | -0.222
0.0457247 µM | -3.36 | 0.129
0.137174 µM | -8.35 | -0.93
0.411523 µM | -3.53 | -0.643
1.23457 µM | -4.1 | 1.01
3.7037 µM | -6.16 | 0.773
11.1111 µM | -1.51 | 0.394
33.3333 µM | 17.2 | -2.07
100 µM | 80.5 | 17.4

Reference: the supplement of paper PMC9244889
